“And” between values parts separate entries of the source, which are not always exact repeats. Equal entries are not always repeated. Toxic doses and inconclusive results are not listed. No stated cut-off is given here; in the data, active means T/C of 150% or more; inactive means T/C below 125%. Peptide text beside a SMILES is read from it.
Tested on: L1210 leukemia ip in BDF1 mice, survival T/C
Assay: NCI In Vivo Anticancer Drug Screen. Data for tumor model L1210 Leukemia (intraperitoneal) in B6D2F1 (BDF1) mice
Settings: endpoint: mean survival time, higher = longer survival
Procedure, shortened: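 Tumor cells were implanted, animals were treated, and survival was followed. The result divides the treated measurement by the vehicle-control measurement.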

[1] = dose: 100.0 mg/kg/injection, schedule: Q01DX001 (ip), vehicle: saline
[2] = dose: 200.0 mg/kg/injection, schedule: Q01DX001 (ip), vehicle: saline
[3] = dose: 400.0 mg/kg/injection, schedule: Q01DX001 (ip), vehicle: saline
[4] = dose: 100.0 mg/kg/injection, schedule: Q01DX001 (ip), vehicle: carboxymethylcellulose (CMC)
[5] = dose: 200.0 mg/kg/injection, schedule: Q01DX001 (ip), vehicle: carboxymethylcellulose (CMC)
[6] = dose: 400.0 mg/kg/injection, schedule: Q01DX001 (ip), vehicle: carboxymethylcellulose (CMC)
[7] = dose: 100.0 mg/kg/injection, schedule: Q04DX003 (ip), vehicle: saline with Tween-80
[8] = dose: 200.0 mg/kg/injection, schedule: Q04DX003 (ip), vehicle: saline with Tween-80
[9] = dose: 400.0 mg/kg/injection, schedule: Q04DX003 (ip), vehicle: saline with Tween-80
[10] = dose: 50.0 mg/kg/injection, schedule: Q01DX009 (ip), vehicle: saline
[11] = dose: 100.0 mg/kg/injection, schedule: Q01DX009 (ip), vehicle: saline
[12] = dose: 200.0 mg/kg/injection, schedule: Q01DX009 (ip), vehicle: saline
[13] = dose: 50.0 mg/kg/injection, schedule: Q01DX009 (ip), vehicle: saline with Tween-80
[14] = dose: 100.0 mg/kg/injection, schedule: Q04DX003 (ip), vehicle: saline
[15] = dose: 100.0 mg/kg/injection, schedule: Q04DX002 (ip), vehicle: saline with Tween-80
[16] = dose: 200.0 mg/kg/injection, schedule: Q04DX002 (ip), vehicle: saline with Tween-80
[17] = dose: 400.0 mg/kg/injection, schedule: Q04DX002 (ip), vehicle: saline with Tween-80

Measured: T/C

CN(C(=O)CCC(=O)O)c1cc([N+](=O)[O-])ccc1OCc1ccccc1
inactive: dose: 50.0 mg/kg/injection, schedule: Q01DX001 (ip), vehicle: saline 108 % of control | [1] 100 % of control | [2] 105 % of control | [3] 109 % of control

CCCCC(=O)N/N=C/c1ccc(Cl)c([N+](=O)[O-])c1
inactive: [1] 91 % of control | [2] 89 % of control | [3] 91 % of control

CCCCCCC(C1CCCCC1)C1CCCCC1
inactive: [4] 86 % of control | [5] 102 % of control | [6] 91 % of control

CC1=CC(O)CCC1 (stereo not drawn)
inactive: [7] 104 % of control | [8] 109 % of control | [9] 93 % of control

O=COCCN(C=O)c1ccc(C(=O)O)cc1
inactive: dose: 75.0 mg/kg/injection, schedule: Q01DX009 (ip), vehicle: Klucel (hydroxypropylcellulose) (HPC) 92 % of control | dose: 150.0 mg/kg/injection, schedule: Q01DX009 (ip), vehicle: Klucel (hydroxypropylcellulose) (HPC) 87 % of control | dose: 300.0 mg/kg/injection, schedule: Q01DX009 (ip), vehicle: Klucel (hydroxypropylcellulose) (HPC) 88 % of control

O=C(O)/C=C\C(=O)Nc1ccc2c(c1)Cc1cc(Cl)ccc1-2
inactive: [7] 92 % of control | [8] 87 % of control

Cc1cc(NC(=O)Oc2ccccc2)ccc1S(=O)(=O)F
inactive: dose: 75.0 mg/kg/injection, schedule: Q01DX001 (ip), vehicle: steriod suspending solution 102 % of control | dose: 150.0 mg/kg/injection, schedule: Q01DX001 (ip), vehicle: steriod suspending solution 96 % of control | dose: 300.0 mg/kg/injection, schedule: Q01DX001 (ip), vehicle: steriod suspending solution 98 % of control

COP(=O)(OC)C(=O)c1ccc([N+](=O)[O-])cc1
inactive: [1] 98 % of control | [2] 95 % of control | [3] 103 % of control

CCN1CC2C3CCC(C)(O3)C2C1 (stereo not drawn)
inactive: dose: 44.0 mg/kg/injection, schedule: Q01DX Z (ip), vehicle: methylcellulose (MC) 100 % of control | dose: 66.0 mg/kg/injection, schedule: Q01DX Z (ip), vehicle: methylcellulose (MC) 92 % of control | dose: 100.0 mg/kg/injection, schedule: Q01DX Z (ip), vehicle: methylcellulose (MC) 98 % of control

CSc1ncnc2c1ncn2/N=C/c1ccccc1
inactive: [4] 96 % of control | [5] 95 % of control | [6] 96 % of control

CCOC(=O)C(=O)CC1=NC2CCCCC2N(C)C1=O (stereo not drawn)
inactive: [10] 93 % of control | [11] 90 % of control | [12] 90 % of control

O=Cc1cc2c(cc1Cl)OCO2
inactive: [7] 92 % of control | [8] 86 % of control | [9] 97 % of control

COc1ccc(/C=N/NC(=O)CNC(=O)Nc2cccc(Cl)c2)cc1
inactive: [13] 87 % of control

NC(=O)C(CCCN=C(N)N)NC(=O)CNC(=O)C(N)CO (stereo not drawn) (H-Ser-Gly-Arg-NH2; configuration not given here)
inactive: dose: 25.0 mg/kg/injection, schedule: Q04DX002 (ip), vehicle: Klucel (hydroxypropylcellulose) (HPC) 103 % of control | dose: 50.0 mg/kg/injection, schedule: Q04DX002 (ip), vehicle: Klucel (hydroxypropylcellulose) (HPC) 106 % of control | dose: 100.0 mg/kg/injection, schedule: Q04DX002 (ip), vehicle: Klucel (hydroxypropylcellulose) (HPC) 100 % of control

CCCCNC(=O)C1CC2c3cc(Br)cc4[nH]c(Br)c(c34)CC2N(C)C1 (stereo not drawn)
inactive: dose: 25.0 mg/kg/injection, schedule: Q04DX003 (ip), vehicle: Klucel (hydroxypropylcellulose) (HPC) 96 % of control | dose: 100.0 mg/kg/injection, schedule: Q04DX003 (ip), vehicle: Klucel (hydroxypropylcellulose) (HPC) 91 % of control | dose: 400.0 mg/kg/injection, schedule: Q04DX003 (ip), vehicle: Klucel (hydroxypropylcellulose) (HPC) 89 % of control

CCCCOc1ccc(OCCCCCCCCCC[N+](C)(C)C)cc1
inactive: dose: 1.56 mg/kg/injection, schedule: Q04DX002 (ip), vehicle: saline 103 % of control | dose: 3.13 mg/kg/injection, schedule: Q04DX002 (ip), vehicle: saline 96 % of control | dose: 6.25 mg/kg/injection, schedule: Q04DX002 (ip), vehicle: saline 96 % of control | dose: 12.5 mg/kg/injection, schedule: Q04DX002 (ip), vehicle: saline 97 % of control and 122 % of control

CN(C)C(=O)c1ccc[n+](Cc2ccc(Cl)c(Cl)c2)c1
inactive: [14] 88 % of control

CCCCCCCCCCCCNNC(=O)OCCO
inactive: [1] 101 % of control | [2] 93 % of control

CC(=O)Cc1nc(N)nc(Nc2ccc(Cl)c(Cl)c2)n1
inactive: [7] 91 % of control | [8] 96 % of control | [9] 96 % of control

O=C(Nc1ccccc1F)N1CCCCC1
inactive: dose: 100.0 mg/kg/injection, schedule: Q01DX009 (ip), vehicle: gum acacia 97 % of control | dose: 200.0 mg/kg/injection, schedule: Q01DX009 (ip), vehicle: gum acacia 97 % of control | dose: 400.0 mg/kg/injection, schedule: Q01DX009 (ip), vehicle: gum acacia 100 % of control

CCC1CN2CCc3cc(OC)c(OC)cc3C2CC1CC1c2cc(OC)c(OC)cc2CCN1C(=O)C1CCCN1C(=O)OCc1ccccc1 (stereo not drawn)
inactive: dose: 50.0 mg/kg/injection, schedule: Q01DX001 (ip), vehicle: carboxymethylcellulose (CMC) 97 % of control | [4] 101 % of control | [5] 106 % of control | [6] 97 % of control

O=C(O)C1C2CC3OC(=O)C1C3C2 (stereo not drawn)
inactive: [1] 93 % of control | [11] 98 % of control | [7] 91 % of control | [14] 97 % of control and 98 % of control | [2] 94 % of control | [12] 87 % of control | [8] 94 % of control | dose: 200.0 mg/kg/injection, schedule: Q04DX003 (ip), vehicle: saline 95 % of control and 100 % of control | [3] 100 % of control | dose: 400.0 mg/kg/injection, schedule: Q01DX009 (ip), vehicle: saline 87 % of control | [9] 104 % of control | dose: 400.0 mg/kg/injection, schedule: Q04DX003 (ip), vehicle: saline 98 % of control and 115 % of control

O=P(c1ccc(F)cc1)(c1ccc(F)cc1)c1ccc(F)cc1
inactive: dose: 12.5 mg/kg/injection, schedule: Q01DX009 (ip), vehicle: Klucel (hydroxypropylcellulose) (HPC) 101 % of control | dose: 25.0 mg/kg/injection, schedule: Q01DX009 (ip), vehicle: Klucel (hydroxypropylcellulose) (HPC) 103 % of control

COc1ccc(CCN2C(=O)c3cccc4c(Sc5ccccc5[N+](=O)[O-])ccc(c34)C2=O)cc1OC
inactive: [15] 90 % of control | [16] 111 % of control | [17] 93 % of control

CN(C)CCCCl
inactive: dose: 25.0 mg/kg/injection, schedule: Q01DX Z (ip), vehicle: other 102 % of control | [10] 90 % of control | dose: 50.0 mg/kg/injection, schedule: Q01DX Z (ip), vehicle: other 102 % of control | dose: 75.0 mg/kg/injection, schedule: Q04DX003 (ip), vehicle: saline 101 % of control | dose: 100.0 mg/kg/injection, schedule: Q01DX Z (ip), vehicle: other 92 % of control | dose: 150.0 mg/kg/injection, schedule: Q04DX003 (ip), vehicle: saline 93 % of control

Cc1nc2ccccc2c(=O)n1C(C)(C)CCl
inactive: [7] 95 % of control | [8] 92 % of control | [9] 95 % of control

CSc1ccc(NC(=O)Oc2cc3ccccc3cc2C(=O)Nc2ccccc2)cc1
inactive: [13] 97 % of control and 99 % of control | dose: 100.0 mg/kg/injection, schedule: Q01DX001 (ip), vehicle: saline with Tween-80 95 % of control | dose: 100.0 mg/kg/injection, schedule: Q01DX009 (ip), vehicle: saline with Tween-80 96 % of control and 86 % of control | [15] 100 % of control and 92 % of control | [7] 87 % of control | dose: 200.0 mg/kg/injection, schedule: Q01DX001 (ip), vehicle: saline with Tween-80 87 % of control | dose: 200.0 mg/kg/injection, schedule: Q01DX009 (ip), vehicle: saline with Tween-80 96 % of control and 90 % of control | [16] 98 % of control and 91 % of control | [8] 94 % of control | dose: 400.0 mg/kg/injection, schedule: Q01DX001 (ip), vehicle: saline with Tween-80 88 % of control | [17] 95 % of control | [9] 91 % of control
